The text below walks through data of paper PMC11424460, “Inhibitory effects of calcium channel blockers nisoldipine and nimodipine on ivacaftor metabolism and their underlying mechanism” (Frontiers in Pharmacology, 2024).

The test system of data set [1] is ivacaftor metabolism in rat liver microsomes (RLM). The experiment in a line: Screening of 79 drugs (100 μM) for inhibition of ivacaftor metabolism in RLM incubation. It counts as in vitro ADME. The following applies: each drug 100 μM, 0.3 mg/mL RLM. On the procedure: The supernatants were centrifuged at 100,000 × g for 1 h, and the pellets were resuspended with cold […] PBS. Protein concentrations were determined by Bradford Protein Assay Kit (Thermo Scientific, Waltham, MA, United States).
This system was made up of 200 μL of incubation solution consisting of 0.3 mg/mL RLM or 0.4 mg/mL HLM, 1.0 mM NADPH, pH 7.4 PBS and ivacaftor. […] The solution should be pre-incubated at 37°C for 5 min before adding NADPH. Following the addition of NADPH, the mixture should be incubated for 40 min. The reaction should then be stopped at −80°C. After the enzyme reaction was completed, 20 μL of 500 ng/mL IS solution and 400 μL acetonitrile (protein precipitating agent) were added to the mixture. The mixture was vortexed for 2 min and then centrifuged at 13,000 rpm for 10 min. After centrifugation, 100 μL of the supernatant was quantified using UPLC-MS/MS.
Each drug was used at a concentration of 100 μM as the inhibitor. The culture system was 200 μL and included 0.3 mg/mL RLM, 1.0 mM NADPH, PBS, ivacaftor, and inhibitor. The reaction procedure was the same as the enzyme reaction mentioned above Section 2.2.

Data set [2] addresses ivacaftor metabolism in rat liver microsomes (RLM). In words: IC50 and inhibition mechanism (Lineweaver-Burk, Ki, αKi) on ivacaftor metabolism in RLM. It counts as in vitro ADME. Conditions: for IC50: ivacaftor 8.8 μM; for Inhibition type: Lineweaver-Burk plots. How it is done:
(§1) This system was made up of 200 μL of incubation solution consisting of 0.3 mg/mL RLM or 0.4 mg/mL HLM, 1.0 mM NADPH, pH 7.4 PBS and ivacaftor. […] In HLM, a range of concentrations (0.1, 1, 2, 4, 12, 25 μM) of ivacaftor was used to determine Km. The solution should be pre-incubated at 37°C for 5 min before adding NADPH. Following the addition of NADPH, the mixture should be incubated for 40 min. The reaction should then be stopped at −80°C. After the enzyme reaction was completed, 20 μL of 500 ng/mL IS solution and 400 μL acetonitrile (protein precipitating agent) were added to the mixture. The mixture was vortexed for 2 min and then centrifuged at 13,000 rpm for 10 min. After centrifugation, 100 μL of the supernatant was quantified using UPLC-MS/MS.
(§2) The IC50 values for the inhibitory effects of nisoldipine and nimodipine on ivacaftor in HLM were also determined. […] The final concentration of DMSO in the culture system is less than 1%. […] The incubation and post-treatment procedures were consistent with the enzyme incubation of ivacaftor described above Section 2.2.
(§3) The incubation and post-treatment procedures were consistent with the enzyme incubation of ivacaftor described above Section 2.2.
(§4) Km values, IC50 values, Lineweaver-Burk plots and mean plasma concentration-time curves were all generated using GraphPad Prism 9.0 software (GraphPad Software, Inc., United States). Pharmacokinetic parameters of ivacaftor and M1 were obtained by analyzing them using the non-compartmental model of Drug and Statistics (DAS) (version 3.0, Mathematical Pharmacology Professional Committee of China, Shanghai, China), and a one-way ANOVA was performed to compare the pharmacokinetics of the three groups of rats using SPSS (version 26.0; SPSS Inc., Chicago, IL, United States). A P-value <0.05 was considered statistically significant. Data were represented as mean ± standard deviation (SD).

On the set-up of data set [3]: method as in Schneider et al., 2015. Conditions: ref Schneider et al., 2015; cited from earlier work.
Data set [4] is described as follows: Pharmacokinetics of ivacaftor and M1 in Sprague-Dawley rats with or without nisoldipine or nimodipine. It counts as in vivo. Conditions: male, rat, plasma, po, ivacaftor 10 mg/kg gavage, nisoldipine 1 mg/kg or nimodipine 10 mg/kg 30 min before. How it is done:
The animal study was supervised and approved by Ethics Committee of The First Affiliated Hospital of Wenzhou Medical University (WYYY-IACUC-AEC-2023-065). 12 Sprague-Dawley male rats (220 ± 20 g) were purchased from the First Affiliated Hospital of Wenzhou Medical University and randomly divided into three groups: group A (control), group B (nisoldipine), and group C (nimodipine), with 4 rats in each group. A 12 h fast with no restriction on water intake was conducted prior to the experiment. […] Group B were received nisoldipine (1 mg/kg) via gavage, while group C were received nimodipine (10 mg/kg) via the same method. Group A were given the same volume of CMC-Na to serve as a control. […] Before UPLC-MS/MS analysis, supernatant was mixed with 300 μL acetonitrile and 10 μL IS (500 ng/mL), and then vortexed for 2 min and centrifuged at 13,000 rpm for 10 min at 4°C. Finally, a 100 μL sample of supernatant was collected for UPLC-MS/MS analysis. […] SPSS Inc., Chicago, IL, United States). […] Data were represented as mean ± standard deviation (SD).

The test system of data set [5] is rat liver microsomes (RLM). Conditions: read-out: Km (Michaelis-Menten constant); RLM 0.3 mg/mL, 40 min incubation. How it is done: as §1
as §4, with “Data were represented as mean ± standard deviation (SD).” left out

The subject of data set [6] is human liver microsomes (HLM). Conditions: read-out: Km (Michaelis-Menten constant); HLM 0.4 mg/mL, 40 min incubation. On the procedure: as §1
as §4, with “Data were represented as mean ± standard deviation (SD).” left out

On the set-up of data set [7]: method as in Harbeson et al., 2017. Conditions: male rats, gavage of 10 mg/kg ivacaftor alone, PEG400 as solvent; ref Harbeson et al., 2017; cited from earlier work.
Data set [8] deals with ivacaftor metabolism in human liver microsomes (HLM). The experiment in a line: IC50 and inhibition mechanism (Lineweaver-Burk, Ki, αKi) on ivacaftor metabolism in HLM. The following applies: for Inhibition type: Lineweaver-Burk plots; for IC50: ivacaftor 6.8 μM. It counts as in vitro ADME. On the procedure: as §1, §2, §3, §4
The next data set deals with CYP3A. The following applies: strong CYP3A inhibitor co-administered; FDA report; ref Garg et al., 2019; cited from earlier work.

Entries after “also recorded” stand apart in the source; their conditions may differ. Like-named read-outs stand apart in the source and are kept apart here.

In general, IC50 refers to the concentration that inhibits the measured activity by half. A low value points to greater potency in that assay. On to `CCOC(=O)C1=C(C)NC(C)=C(C(=O)OC)C1c1cccc(Cl)c1Cl` (centres unmarked) [Felodipine], for which the “Metabolic rate (Mean ± SD, % of control)” value in [1] is reported as 13.47 ± 1.71 % of control. In addition, inhibition in data set [2] was half-maximal at 15.6 µM (IC50).
The term AUC(0-inf) denotes total exposure, with the tail of the curve extrapolated. Higher therefore signals more exposure. The AUC(0-t) is exposure summed from dosing to a finite time, without extrapolation to infinity. The low end stands for low exposure, the high end for high exposure. For orientation: Cmax means the maximum level reached in the sampled fluid or tissue. Usually Km stands for the concentration of substrate that gives half-maximal velocity. With `CC(C)(C)c1cc(C(C)(C)C)c(NC(=O)c2c[nH]c3ccccc3c2=O)cc1O` [Ivacaftor, N-(2,4-Di-tert-butyl-5-hydroxyphenyl)-4-oxo-1,4-dihydroquinoline-3-carboxamide], the plasma protein binding in data set [3] is on record as > 97%. For the same compound, in data set [4] (n = 4), the total exposure AUC(0-inf) came to 9360 ng·h/mL, the AUC(0-t) worked out at 8410 ng·h/mL and the Cmax came out at 676 ± 242 ng/mL. In addition, the CL/F in data set [4] (n = 4, read-out: CLz/F of ivacaftor (converted)) was 18.2 mL/min/kg. Also, in [4] (n = 4, read-out: t1/2 of ivacaftor (converted)), the half-life is 12.2 ± 4.8 h. In addition, the Km in data set [5] was found to be 8.8 µM. Moreover, in data set [6], the Km is 6.8 µM. Besides, the “AUC(0–24h) of ivacaftor” value in [7] was 22,177 ng/mL*h.
As for `CCOC(=O)C1=C(C)NC(C)=C(C(=O)OCC)C1c1ccccc1/C=C/C(=O)OC(C)(C)C` [Lacidipine], the “Metabolic rate (Mean ± SD, % of control)” value in [1] is listed as 14.13 ± 1.07 % of control. The same compound registered an IC50 in data set [2] of 2.17 µM.
What is called Ki is a measure of affinity in units of concentration, obtained from inhibition or displacement. As for `COCCOC(=O)C1=C(C)NC(C)=C(C(=O)OC(C)C)C1c1cccc([N+](=O)[O-])c1` (centres unmarked) [Nimodipine], in data set [1], the “Metabolic rate (Mean ± SD, % of control)” value is given as 7.84 ± 0.43 % of control. In addition, the inhibition constant (Ki) in [2] stood at 3.26 µM; in data set [8] it was 5.87 µM. Besides, the Inhibition type entry in data set [2] and in [8] was “Competitive inhibition” each time. The IC50 in data set [2] is 4.57 µM; in data set [2] (listed as nimodipine), < 10 µM; in data set [8], 7.15 µM; in [8] (listed as nimodipine) it was < 10 µM.
On to `COC(=O)C1=C(C)NC(C)=C(C(=O)OCC(C)C)C1c1ccccc1[N+](=O)[O-]` (centres unmarked) [Nisoldipine], for which the “Metabolic rate (Mean ± SD, % of control)” value in data set [1] is on record as 7.29 ± 4.05 % of control. The figures for the Ki in [2] and in data set [8] were 3.35 µM and 3.92 µM, respectively. Further, the α in data set [2] was 2.53; in [2] (listed as nisoldipine), 8.48; in [8], 9.03; in [8] (listed as nisoldipine) it was 35.40. Also, the Inhibition type result is “Non-competitive inhibition and competitive inhibition” in data set [2]; “mixed inhibition; also recorded: mixed-type of non-competitive and competitive inhibition” in data set [2] (listed as nisoldipine); “Non-competitive inhibition and competitive inhibition” in [8]; “mixed inhibition; also recorded: mixed-type of non-competitive and competitive inhibition” in data set [8] (listed as nisoldipine). Moreover, the IC50 is 6.55 µM in data set [2], < 10 µM in [2] (listed as nisoldipine), 9.1 µM in data set [8] and < 10 µM in data set [8] (listed as nisoldipine).
In the case of `C=C[C@H]1C[N@@]2CC[C@H]1C[C@@H]2[C@@H](O)c1ccnc2ccc(OC)cc12` [Quinidine], the “Metabolic rate (Mean ± SD, % of control)” value in [1] is given as 37.44 ± 4.20 % of control.
As to `Oc1ccc(/C=C/c2cc(O)cc(O)c2)cc1` [Resveratrol], in data set [1], the “Metabolic rate (Mean ± SD, % of control)” value is listed as 18.69 ± 0.46 % of control.
Still for that read-out and setting: the same measure for `O=C(NC[C@H]1CN(c2ccc(N3CCOCC3=O)cc2)C(=O)O1)c1ccc(Cl)s1` [Rivaroxaban]: 85.62 ± 0.92 % of control.
On to `C[C@@H]1O[C@@H](OC[C@H]2O[C@@H](Oc3c(-c4ccc(O)c(O)c4)oc4cc(O)cc(O)c4c3=O)[C@H](O)[C@@H](O)[C@@H]2O)[C@H](O)[C@H](O)[C@H]1O` [Rutin], for which the “Metabolic rate (Mean ± SD, % of control)” value in data set [1] is 91.63 ± 0.31 % of control.
The same measure, in the same setting: the same measure for `CC(C)N(CCCCOCC(=O)NS(C)(=O)=O)c1cnc(-c2ccccc2)c(-c2ccccc2)n1` [Selexipag]: 28.78 ± 2.21 % of control; for `CC(C)=CC[C@@H](O)C1=CC(=O)c2c(O)ccc(O)c2C1=O` [Shikonin]: 41.65 ± 3.13 % of control.
Same read-out and setting: the same measure for `COc1cc(C2Oc3cc([C@H]4Oc5cc(O)cc(O)c5C(=O)[C@@H]4O)ccc3OC2CO)ccc1O` (some centres unmarked) [Silibinin]: 54.73 ± 1.11 % of control; for `N[C@@H](CC(=O)N1CCn2c(nnc2C(F)(F)F)C1)Cc1cc(F)c(F)cc1F` [Sitagliptin]: 97.11 ± 2.13 % of control; for `O=C1C=CC[C@@H]2[C@H]3CCCN4CCC[C@@H](CN12)[C@@H]34` [Sophocarpine]: 93.46 ± 2.14 % of control.
The same measure, in the same setting: the same measure for `O=C1CCC[C@@H]2[C@H]3CCCN4CCC[C@H](CN12)[C@@H]34` [Sophoridine]: 109.11 ± 5.90 % of control; for `CCCc1nc2c(C)cc(-c3nc4ccccc4n3C)cc2n1Cc1ccc(-c2ccccc2C(=O)O)cc1` [Telmisartan]: 14.98 ± 1.00 % of control; for `COc1ccc2cc1Oc1ccc(cc1)C[C@H]1c3cc(c(OC)cc3CCN1C)Oc1c(OC)c(OC)cc3c1[C@H](C2)N(C)CC3` [Tetrandrine]: 71.96 ± 16.27 % of control.
For the compound `COC(=O)Nc1c(N)nc(-c2nn(Cc3ccccc3F)c3ncc(F)cc23)nc1N` [Vericiguat], the “Metabolic rate (Mean ± SD, % of control)” value in [1] is 76.32 ± 1.42 % of control.
Turning to `Cc1ccc(Sc2ccccc2N2CCNCC2)c(C)c1` [Vortioxetine], in [1], the “Metabolic rate (Mean ± SD, % of control)” value was 3.17 ± 0.50 % of control.
Still for that read-out and setting: the same measure for `CC(=O)CC(c1ccccc1)c1c(O)c2ccccc2oc1=O` (centres unmarked) [Warfarin]: 95.32 ± 3.41 % of control; for `CSCCNc1nc(SCCC(F)(F)F)nc2c1ncn2[C@@H]1O[C@H](COP(=O)(O)OP(=O)(O)C(Cl)(Cl)P(=O)(O)O)[C@@H](O)[C@H]1O` [cangrelor]: 105.13 ± 0.21 % of control.
With `CCC(C)n1ncn(-c2ccc(N3CCN(c4ccc(OCC5COC(Cn6cncn6)(c6ccc(Cl)cc6Cl)O5)cc4)CC3)cc2)c1=O` (centres unmarked) [itraconazole], in the data set with CYP3A, the “increase in AUC of ivacaftor when combined with the inhibitor” value is given as 15.6 fold.
Turning to `CC(=O)N1CCN(c2ccc(OCC3COC(Cn4ccnc4)(c4ccc(Cl)cc4Cl)O3)cc2)CC1` (centres unmarked) [ketoconazole], the “increase in AUC of ivacaftor when combined with the inhibitor” value with CYP3A is reported as 8.5 fold.
Turning to `CC(C)n1c(=O)cc(N[C@@H](C)c2ccccc2)[nH]c1=O` [mavacamten], the “Metabolic rate (Mean ± SD, % of control)” value in [1] was 94.17 ± 0.21 % of control.
